Measurements reported in US20080033026A1, “Antimicrobial compositions, methods and systems” (priority 2006, published 2008).

What was measured:
[1] = system: Escherichia coli 0157:H7 (ATCC 43895); assay: Time-kill determination; format: cell-based
Procedure: (§1) The assessment of efficacy of 9-decenoic acid against a spectrum of microorganisms was determined using the American Society for Testing and Materials (ASTM) procedure entitled “Standard Test Method for the Assessment of Microbiocidal Activity of Test Materials Using a Time-Kill Procedure,” October 1998. This procedure incorporates the recommendations described in the “Manual of Clinical Microbiology,” 5th ed., edited by A. B. Balows et al., ASM, Washington, and is directed by the Federal Register, June 1994.
(§2) Challenge organisms were prepared as follows. Cultures of the following organisms were obtained: Staphylococcus aureus (ATCC 6538), Pseudomonas aeruginosa (ATCC 15442), Staphylococcus epidermidis (ATCC 12228), Klebsiella pneumoniae (ATCC 4352), Escherichia coli 0157:H7 (ATCC 43895) and Candida albicans (ATCC 10231). The stock cultures were transferred to sterile tubes and sterile tryptic soy broth (TSB) was added to the cultures. The mixture was incubated for 18-24 hours at 37° C. (±2° C.). A portion of this culture was then transferred onto TSA plates and incubated for 18-24 hours at 37° C. (±2° C.). The plates were removed from incubation and the bacterial growth was washed from the agar surface using Butterfield's Phosphate Buffered Dilution Water (PBDW).
(§3) The bacterial suspension was adjusted to contain approximately 10^8 Colony Forming Units (CFU) per ml with PBDW. The concentration was adjusted to an optical density (OD) of 0.4-0.5 (versus a PBDW blank) at 620 nm in a UV-Vis spectrophotometer, and this optical density gave approximately 10^8 colony forming units per milliliter (cfu/ml). The standardized suspension was stored under appropriate conditions until it was used as the challenge inoculum.
(§4) Concentrated 9-decenoic acid (97%) was diluted in filter sterilized isopropanol to yield a 25,000 ppm stock solution. Subsequent dilutions to the 9-decenoic acid stock solutions were made with sterile Deionized Water (DI) to achieve concentrations of 0.1%, 0.05%, 0.01% and 0.001%. The pH was determined for each dilution; pH values ranged from 4.4-4.1. […] In addition, 9-decenoic acid stock solution was combined with Triclosan™ (obtained from Ciba Specialty Chemical Corporation, under the tradename Irgasan DP 300™) in various ratios, as indicated in Table 8. The pH of the combined solution was 7.
(§5) Compliant with the ASTM procedure cited, for each challenge microorganism a 9.9 ml aliquot of the prepared 9-decenoic acid suspension was added to a sterile tube. A 0.1 ml aliquot of the standardized inoculum was added to the 9-decenoic acid solution representing the start of the test exposure. The inoculated 9-decenoic acid solution was immediately mixed thoroughly. The inoculated suspension was held at room temperature for 0.5, 2, 5, 7 and 10-minute exposure times for tests run at pH level of approximately 4. The pH 7 tests were held at room temperature for 0.5 and 2 minutes.
(§6) At each exposure sample time, a 1.0 ml aliquot of the inoculated 9-decenoic acid suspension was transferred to 9.0 ml of D/E Neutralizing Broth. Additional ten-fold serial dilutions were made in PBDW and plated in duplicate on TSA. All plates were incubated for 48 hours at 37° C. (±2° C.) and visually examined for growth. The plates were enumerated, recorded and log kill determined for each time point.
(§7) The following study controls were conducted: culture purity, neutralizer sterility, initial suspension population, test population, neutralization verification and a negative control using isopropanol. Culture purity was verified by performing a streak plate for isolated colonies of each culture used. All cultures were determined to be pure based on consistent colony morphology typical for the test organism. The neutralizer sterility was confirmed by no growth in an incubated sample.
(§8) The populations of the initial and test culture were determined by serial dilution, plating and enumerating after incubation. The initial suspension were determined to be ≧10^4 CFU/ml. […]

[2] = system: Staphylococcus aureus (ATCC 6538); assay: Time-kill determination; format: cell-based
Procedure: as §1, §2, §3, §4, §5, §6, §7, §8

[3] = 0.01% 9-decenoic acid, pH 4.4, exposure 0.5 min
[4] = 0.01% 9-decenoic acid, pH 4.4, exposure 2 min
[5] = 0.01% 9-decenoic acid, pH 4.4, exposure 5 min
[6] = 0.01% 9-decenoic acid, pH 4.4, exposure 7 min
[7] = 0.01% 9-decenoic acid, pH 4.4, exposure 10 min
[8] = 0.05% 9-decenoic acid, pH 4.1, exposure 0.5 min
[9] = 0.05% 9-decenoic acid, pH 4.1, exposure 2 min
[10] = 0.05% 9-decenoic acid, pH 4.1, exposure 5 min
[11] = 0.05% 9-decenoic acid, pH 4.1, exposure 7 min
[12] = 0.05% 9-decenoic acid, pH 4.1, exposure 10 min
[13] = 0.05% 9-decenoic acid, pH 7, exposure 0.5 min
[14] = 0.05% 9-decenoic acid, pH 7, exposure 2 min
[15] = 0.1% 9-decenoic acid, pH 4.1, exposure 0.5 min
[16] = 0.1% 9-decenoic acid, pH 4.1, exposure 2 min
[17] = 0.1% 9-decenoic acid, pH 4.1, exposure 5 min
[18] = 0.1% 9-decenoic acid, pH 4.1, exposure 7 min
[19] = 0.1% 9-decenoic acid, pH 4.1, exposure 10 min
[20] = 0.75% 9-decenoic acid, pH 7, exposure 0.5 min
[21] = 0.75% 9-decenoic acid, pH 7, exposure 2 min
[22] = 1% 9-decenoic acid, pH 7, exposure 0.5 min
[23] = 1% 9-decenoic acid, pH 7, exposure 2 min

With `C=CCCCCCCCC(=O)O` [9-decenoic acid] as the compound, how does the Log reduction [1, 3] read?
Its Log reduction is 1.3 log.

And the Log reduction [1, 4]?
Its Log reduction is 1.6 log.

What about the Log reduction [1, 5] of the same compound?
The Log reduction was 2.2 log.

What about the Log reduction [1, 6] of the same compound?
The Log reduction was 1.8 log.

And the Log reduction [1, 7]?
The Log reduction was 2.7 log.

And the Log reduction [1, 8]?
Its Log reduction is >6.2 log.

What about the Log reduction [1, 9] of the same compound?
Its Log reduction is >6.2 log.

And the Log reduction [1, 10]?
Its Log reduction is >6.2 log.

And the Log reduction [1, 11]?
Its Log reduction is >6.2 log.

And the Log reduction [1, 12]?
Its Log reduction is >6.2 log.

What about the Log reduction [1, 13] of the same compound?
Its Log reduction is 0 log.

What about the Log reduction [1, 14] of the same compound?
The Log reduction was 0 log.

And the Log reduction [1, 15]?
Its Log reduction is >6.2 log.

And the Log reduction [1, 16]?
Its Log reduction is >6.2 log.

And the Log reduction [1, 17]?
Its Log reduction is >6.2 log.

And the Log reduction [1, 18]?
The Log reduction was >6.2 log.

What about the Log reduction [1, 19] of the same compound?
The Log reduction was >6.2 log.

What about the “Enhancement of disinfectant activity of marginally-effective concentrations of Triclosan” value ([1]; 0.5% 9-decenoic acid added to Triclosan, pH 7) of the same compound?
Its value is 1-2 log reductions.

And the Log reduction ([1]; 0.5% 9-decenoic acid, pH 7, exposure 0.5 min)?
Its Log reduction is 0 log.

And the Log reduction ([1]; 0.5% 9-decenoic acid, pH 7, exposure 2 min)?
Its Log reduction is 0 log.

And the Log reduction [1, 20]?
The Log reduction was 0.83 log.

What about the Log reduction [1, 21] of the same compound?
The Log reduction was >4.2 log.

And the Log reduction [1, 22]?
The Log reduction was >4.2 log.

What about the Log reduction [1, 23] of the same compound?
Its Log reduction is >4.2 log.

And the Log reduction [2, 3]?
Its Log reduction is 1.4 log.

What about the Log reduction [2, 4] of the same compound?
The Log reduction was 4.6 log.

What about the Log reduction [2, 5] of the same compound?
Its Log reduction is >6.5 log.

What about the Log reduction [2, 6] of the same compound?
Its Log reduction is >6.5 log.

And the Log reduction [2, 7]?
Its Log reduction is >6.5 log.

What about the Log reduction [2, 8] of the same compound?
The Log reduction was >6.5 log.

And the Log reduction [2, 9]?
The Log reduction was >6.5 log.

What about the Log reduction [2, 10] of the same compound?
Its Log reduction is >6.5 log.

What about the Log reduction [2, 11] of the same compound?
The Log reduction was >6.5 log.

And the Log reduction [2, 12]?
Its Log reduction is >6.5 log.

And the Log reduction [2, 13]?
Its Log reduction is 0 log.

What about the Log reduction [2, 14] of the same compound?
The Log reduction was 0 log.

And the Log reduction [2, 15]?
Its Log reduction is >6.5 log.

What about the Log reduction [2, 16] of the same compound?
The Log reduction was >6.5 log.

What about the Log reduction [2, 17] of the same compound?
The Log reduction was >6.5 log.

What about the Log reduction [2, 18] of the same compound?
Its Log reduction is >6.5 log.

What about the Log reduction [2, 19] of the same compound?
Its Log reduction is >6.5 log.

And the Log reduction [2, 20]?
The Log reduction was 0.67 log.

And the Log reduction [2, 21]?
The Log reduction was 1 log.

And the Log reduction [2, 22]?
The Log reduction was 2.1 log.

What about the Log reduction [2, 23] of the same compound?
Its Log reduction is 3.2 log.
